Laboratory results from ChEMBL document CHEMBL3407467, “Recent advances in the chemistry and biology of pyridopyrimidines” (Eur J Med Chem, 2015).
Values belong to the compound of their own block, whether it stands above or below them.

How the values were obtained:
Dihydrofolate reductase [1] = target: T1, Dihydrofolate reductase (Pneumocystis carinii, UniProt P16184); assay: Inhibition of recombinant Pneumocystis carinii DHFR expressed in Escherichia coli Rosetta Gami B (DE3) by spectrophotometric assay
T1 sequence (P16184 whole entry): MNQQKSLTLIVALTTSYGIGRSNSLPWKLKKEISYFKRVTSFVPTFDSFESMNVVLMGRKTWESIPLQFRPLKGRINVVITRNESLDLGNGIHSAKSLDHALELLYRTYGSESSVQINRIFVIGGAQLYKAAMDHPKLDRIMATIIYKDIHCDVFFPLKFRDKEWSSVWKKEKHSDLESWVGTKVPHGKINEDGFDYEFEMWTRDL

[2] = Inhibition of human DHFR mutant by spectrophotometric assay
Dihydrofolate reductase [3] = target: T2, Dihydrofolate reductase (Homo sapiens, UniProt P00374); assay: Inhibition of recombinant human DHFR expressed in Escherichia coli Rosetta Gami B (DE3) by spectrophotometric assay
T2 sequence (P00374 whole entry): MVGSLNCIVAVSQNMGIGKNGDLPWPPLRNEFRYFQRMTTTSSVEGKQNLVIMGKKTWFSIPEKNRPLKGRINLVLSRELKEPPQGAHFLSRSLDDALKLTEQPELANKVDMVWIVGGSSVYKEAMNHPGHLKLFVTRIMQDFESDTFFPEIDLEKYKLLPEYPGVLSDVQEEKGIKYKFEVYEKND

Dihydrofolate reductase [4] = target: Dihydrofolate reductase (Pneumocystis carinii, UniProt P16184, K37Q); assay: Inhibition of Pneumocystis carinii DHFR K37Q mutant by spectrophotometric assay
Dihydrofolate reductase (Pneumocystis carinii, UniProt P16184, K37Q), sequence (P16184 whole entry K37Q): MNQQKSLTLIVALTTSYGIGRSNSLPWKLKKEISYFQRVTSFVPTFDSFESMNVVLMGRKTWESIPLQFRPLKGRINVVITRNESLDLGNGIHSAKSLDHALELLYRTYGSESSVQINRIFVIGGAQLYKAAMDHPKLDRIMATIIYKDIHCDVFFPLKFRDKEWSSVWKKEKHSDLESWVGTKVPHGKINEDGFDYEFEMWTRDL

[5] = Inhibition of Pneumocystis carinii DHFR K37Q/F69N mutant by spectrophotometric assay
[6] = Inhibition of recombinant Pneumocystis jirovecii DHFR expressed in Escherichia coli Rosetta Gami B (DE3) by spectrophotometric assay
[7] = Inhibition of Pneumocystis jirovecii DHFR
[8] = target: Receptor tyrosine-protein kinase erbB-2 (Homo sapiens, UniProt P04626); assay: Inhibition of ErbB-2 intracellular domain (unknown origin) purified from a baculovirus expression system using Biotin-(amino hexonoic acid)-EEEEYFELVAKKK-CONH2 as substrate after 10 mins by scintillation counting in presence of [gamma-33P]ATP
Receptor tyrosine-protein kinase erbB-2, sequence (P04626 whole entry, the tested form may be a part): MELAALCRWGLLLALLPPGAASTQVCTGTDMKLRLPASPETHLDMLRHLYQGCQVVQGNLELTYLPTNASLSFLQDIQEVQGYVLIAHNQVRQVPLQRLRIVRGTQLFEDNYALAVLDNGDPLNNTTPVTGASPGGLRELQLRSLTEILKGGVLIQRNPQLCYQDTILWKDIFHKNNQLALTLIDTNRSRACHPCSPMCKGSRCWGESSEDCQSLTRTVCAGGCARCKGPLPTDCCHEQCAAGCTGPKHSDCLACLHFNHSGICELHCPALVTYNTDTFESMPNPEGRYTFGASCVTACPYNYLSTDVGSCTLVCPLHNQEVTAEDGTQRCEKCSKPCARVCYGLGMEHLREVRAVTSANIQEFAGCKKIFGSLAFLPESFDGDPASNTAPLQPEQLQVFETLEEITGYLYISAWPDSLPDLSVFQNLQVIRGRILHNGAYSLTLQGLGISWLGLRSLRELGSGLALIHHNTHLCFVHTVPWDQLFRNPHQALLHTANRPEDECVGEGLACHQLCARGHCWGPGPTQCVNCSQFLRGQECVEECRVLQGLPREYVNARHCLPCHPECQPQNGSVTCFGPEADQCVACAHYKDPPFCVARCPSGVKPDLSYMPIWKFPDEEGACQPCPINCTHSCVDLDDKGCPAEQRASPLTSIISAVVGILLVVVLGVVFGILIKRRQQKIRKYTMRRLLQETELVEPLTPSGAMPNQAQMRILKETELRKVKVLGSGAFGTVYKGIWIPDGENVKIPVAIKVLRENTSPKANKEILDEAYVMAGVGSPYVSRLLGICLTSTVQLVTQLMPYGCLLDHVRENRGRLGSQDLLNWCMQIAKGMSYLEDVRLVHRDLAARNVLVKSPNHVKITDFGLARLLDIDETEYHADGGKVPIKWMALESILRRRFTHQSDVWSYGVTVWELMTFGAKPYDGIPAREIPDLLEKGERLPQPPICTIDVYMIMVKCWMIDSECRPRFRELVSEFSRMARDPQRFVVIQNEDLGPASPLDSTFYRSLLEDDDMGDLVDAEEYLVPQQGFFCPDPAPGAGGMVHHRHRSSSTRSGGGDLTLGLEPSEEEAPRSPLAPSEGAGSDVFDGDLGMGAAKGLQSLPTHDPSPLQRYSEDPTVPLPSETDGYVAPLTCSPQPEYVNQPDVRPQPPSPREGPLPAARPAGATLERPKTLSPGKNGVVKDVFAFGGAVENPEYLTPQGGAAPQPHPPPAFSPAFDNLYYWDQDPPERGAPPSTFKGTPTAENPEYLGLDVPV

Adenosine kinase = Adenosine kinase (Homo sapiens, UniProt P55263); assay: Inhibition of adenosine kinase (unknown origin)
Adenosine kinase, sequence (P55263 whole entry): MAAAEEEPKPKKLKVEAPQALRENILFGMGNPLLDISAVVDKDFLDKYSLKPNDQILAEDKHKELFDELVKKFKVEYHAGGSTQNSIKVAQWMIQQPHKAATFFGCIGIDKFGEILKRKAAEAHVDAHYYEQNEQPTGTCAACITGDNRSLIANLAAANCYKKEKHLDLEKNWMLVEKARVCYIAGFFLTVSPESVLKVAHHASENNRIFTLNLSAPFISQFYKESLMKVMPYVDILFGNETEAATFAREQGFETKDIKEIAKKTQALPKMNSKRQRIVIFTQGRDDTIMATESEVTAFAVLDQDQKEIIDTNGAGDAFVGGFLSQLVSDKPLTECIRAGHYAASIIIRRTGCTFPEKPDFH

SMILES: Nc1nc(N)c2cc(CNc3cc(Cl)ccc3Cl)cnc2n1
Ki (Dihydrofolate reductase [1]): 6.3 nM
Ki [2]: 0.58 nM
Ki (Dihydrofolate reductase [3]): 24.4 nM
Ki (Dihydrofolate reductase [4]): 0.26 nM
Ki [5]: 0.71 nM
Ki [6]: 2.7 nM

SMILES: CN(c1cc(F)c(F)c(F)c1)c1cnc2nc(N)nc(N)c2c1
IC50 [7]: 4.2 nM

SMILES: Nc1ncnc2nc(-c3ccc(N4CCOCC4)nc3)cc(-c3cccc(Br)c3)c12
IC50 (Adenosine kinase): 2 nM

Other lines, results leading:

IC50 [8]: 30 nM
SMILES: CN(CCO)c1cc2c(Nc3ccc4c(cnn4Cc4ccccc4)c3)ncnc2cn1

IC50 [8]: 21 nM
SMILES: [O-][S+]1CCN(Cc2ccc(-c3cc4c(Nc5ccc(OCc6cccc(F)c6)cc5)ncnc4cn3)o2)CC1

IC50 [8]: 26 nM
SMILES: CS(=O)(=O)CCNCc1ccc(-c2cc3c(Nc4ccc(OCc5ccccc5)cc4)ncnc3cn2)o1

IC50 [8]: 16 nM
SMILES: CN(C)c1cc2c(Nc3ccc4c(cnn4Cc4ccccc4)c3)ncnc2cn1 [GW282974X]
